Source: patent US20220184056A1, “USE OF KDM5A GENE AND ATRX GENE” (SHENZHEN CHIPSCREEN BIOSCIENCES, CO., LTD., priority 2019, published 2022)
“And” between values parts separate entries of the source, which are not always exact repeats. Identical values can stand only once.

Columns and labels:
[1] = tested on: relapsed and refractory small cell lung cancer; test: Phase Ib clinical trial of Chiauranib monotherapy for relapsed and refractory small cell lung cancer, with ctDNA biomarker study (KDM5A, ATRX); format: in vivo, human
Description: According to the present invention, a phase Ib clinical trial of using Chiauranib capsules to treat relapsed and refractory small cell lung cancer was carried out, and a concomitant study of efficacy-related biomarkers for 548 tumor-related genes was carried out by detecting and analyzing plasma free tumor DNA (ctDNA). Blood samples were taken from all patients before enrollment, and gene sequences of tumor-related genes were detected, including gene mutations and copy number abnormalities. According to detection results, genes with mutation rates of more than 0.4% were all selected, and progression free survival (PFS) and objective response rates (ORR) of patients were taken as efficacy indicators to analyze the correlation between tumor-related gene abnormalities and the efficacy of Chiauranib.
Test drug: Chiauranib capsules, with specifications of 5 mg and 25 mg. They were manufactured by Shenzhen Chipscreen Biosciences Co., Ltd.
Dosing regimen: the Chiauranib capsules were administered QD at 50 mg/day (not adjusted according to the body weight or the body surface area). The capsules were taken on an empty stomach every morning with water, and the whole capsules were swallowed completely. Continuous administration for 28 days was one treatment cycle, and there was no interval during each treatment cycle.
Number of cases: 25 patients were enrolled.
The test subjects took 50 mg of Chiauranib capsules orally once daily, every 28 days was taken as one treatment cycle, and there was no withdrawal interval during the treatment cycles. All subjects received continuous treatment throughout the trial period until any one of the following occurred (whichever occurred first): progressed disease, intolerable toxicity, death, withdrawal of the informed consent, or loss to follow-up.
Efficacy evaluation: according to the RECIST 1.1 criteria, evaluations were respectively performed in the baseline period and at the end of the 4th week after treatment, and repeated every 8 weeks until a progressive disease occurred. Tumor imageological examinations included CT or MRI of neck, chest, whole abdomen, and pelvic cavity. Other site examinations should be performed as necessary according to clinical indications. The same technologies and methods should be used for baseline of lesions and subsequent evaluation and measurement.
10 mL of peripheral blood was taken before the subjects took Chiauranib for the first time and when a progressive disease occurred, gene sequences of plasma free tumor DNA (ctDNA) and leukocyte extracted DNA (control) were detected, a total of 548 tumor-related genes were included, and detection results included gene mutations and copy number abnormalities, as well as analysis of tumor mutation burden (TMB).
Plasma free tumor DNA (ctDNA) of the evaluated patients was detected and analyzed, and a concomitant study of efficacy-related biomarkers for the 548 tumor-related genes was carried out. According to detection results, genes with mutation rates of more than 0.4% were all selected, and progression free survival (PFS) and objective response (PR) of the patients were taken as efficacy indicators to analyze the correlation between tumor-related gene abnormalities and the efficacy of Chiauranib.

[2] = tested on: SCLC; details: topotecan combined optimal supportive treatment vs optimal supportive treatment alone; cited from earlier work

Row | SMILES | efficacy of monotherapy in the treatment of small cell lung cancer ([1]; 50 mg QD oral) | benefit rate ([1]; 20 evaluated patients, 50 mg QD oral) | ORR ([1]; 20 evaluated patients, 50 mg QD oral, RECIST 1.1) | Non-response (SD + PD), number of patients ([1]; ATRX mutation (6 patients)) | Non-response (SD + PD), share of patients ([1]; ATRX mutation (6 patients)) | Objective response (PR), number of patients ([1]; ATRX mutation (6 patients)) | Objective response (PR), share of patients ([1]; ATRX mutation (6 patients)) | Non-response (SD + PD), number of patients ([1]; ATRX wild type (14 patients)) | Non-response (SD + PD), share of patients ([1]; ATRX wild type (14 patients)) | Objective response (PR), number of patients ([1]; ATRX wild type (14 patients)) | Objective response (PR), share of patients ([1]; ATRX wild type (14 patients)) | PFS Hazard ratio (HR) ([1]; KDM5A wild type vs mutation, P value 0.0087) | patients with best efficacy evaluation being partial response (PR) ([1]; among 20 evaluated patients) | PFS, Median (95% CI) ([1]; patients with KDM5A gene mutation (n = 8)) | PFS, Median (95% CI) ([1]; patients with wild-type KDM5A gene (n = 12)) | Overall survival, quality of life, improvement of symptoms [2]
1 | COc1ccc2c(Oc3ccc4c(C(=O)Nc5ccccc5N)cccc4c3)ccnc2c1 [Chiauranib, N-(2-aminophenyl)-6-(7-methoxyquinolin-4-oxy)-1-naphthamide] | effective | 60% | 20% | 2 patients | 33.3% | 4 patients | 66.7% | 14 patients | 100.0% | 0 patients | 0% | 16.5 (2.03, 133.37) | 4 patients | 145 days and 145.0 (23.0, 145.0) days | 27.5 days and 27.5 (16.0, 61.0) days | 
2 | CC[C@@]1(O)C(=O)OCc2c1cc1n(c2=O)Cc2cc3c(CN(C)C)c(O)ccc3nc2-1 [topotecan] |  |  |  |  |  |  |  |  |  |  |  |  |  |  |  | significantly better
